Test results reported in patent US7183260B2, “C-terminal modified oxamyl dipeptides as inhibitors of the ICE/ced-3 family of cysteine proteases” (Idun Pharmaceuticals, Inc., priority 1998, dated 2007).

Experiments:
Format in all cases: biochemical
Conditions in all cases: continuous assay 60 min, reaction initiated by adding enzyme to substrate-inhibitor mixture
mICE = molecular target: T1, mICE (Mus musculus, UniProt P29452); assay: Dissociation constant Ki and irreversible rate constant k3 for irreversible inhibitors (ICE)
T1 sequence (P29452 123-296 limits assumed): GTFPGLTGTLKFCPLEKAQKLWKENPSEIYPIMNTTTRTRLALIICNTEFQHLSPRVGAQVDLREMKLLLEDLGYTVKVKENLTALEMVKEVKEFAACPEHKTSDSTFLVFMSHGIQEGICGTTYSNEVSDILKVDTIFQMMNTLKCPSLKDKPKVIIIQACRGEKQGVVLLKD
T1 sequence (P29452 315-402 limits assumed): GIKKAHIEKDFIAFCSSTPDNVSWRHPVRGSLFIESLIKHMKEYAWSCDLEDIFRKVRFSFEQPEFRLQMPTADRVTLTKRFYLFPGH

CPP32 = molecular target: T2, CPP32 (Homo sapiens, UniProt P42574); assay: Dissociation constant Ki and irreversible rate constant k3 for irreversible inhibitors (CPP32)
T2 sequence (P42574 29-175 limits assumed): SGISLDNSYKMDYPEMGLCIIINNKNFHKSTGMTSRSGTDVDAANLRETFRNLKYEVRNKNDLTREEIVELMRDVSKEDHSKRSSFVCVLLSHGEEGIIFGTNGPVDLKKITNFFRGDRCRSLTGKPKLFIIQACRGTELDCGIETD
T2 sequence (P42574 176-277 limits assumed): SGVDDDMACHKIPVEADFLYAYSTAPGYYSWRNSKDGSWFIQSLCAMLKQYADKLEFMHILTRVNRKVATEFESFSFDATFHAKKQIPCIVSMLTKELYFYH

MCH-2 = molecular target: T3, MCH-2 (Homo sapiens, UniProt P55212); assay: Dissociation constant Ki and irreversible rate constant k3 for irreversible inhibitors (Mch2)
T3 sequence (P55212 24-179 limits assumed): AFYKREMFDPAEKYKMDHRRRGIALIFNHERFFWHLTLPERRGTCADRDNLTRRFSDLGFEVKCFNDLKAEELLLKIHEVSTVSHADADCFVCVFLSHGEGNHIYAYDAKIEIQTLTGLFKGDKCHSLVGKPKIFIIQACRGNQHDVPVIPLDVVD
T3 sequence (P55212 194-293 limits assumed): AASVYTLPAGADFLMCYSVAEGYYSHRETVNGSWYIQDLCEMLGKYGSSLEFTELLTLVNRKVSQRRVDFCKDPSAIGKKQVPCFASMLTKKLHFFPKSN

MCH-5 = MCH-5 (Homo sapiens, UniProt Q14790); assay: Dissociation constant Ki and irreversible rate constant k3 for irreversible inhibitors (Mch5)
MCH-5, sequence (Q14790 217-374 limits assumed, species assumed): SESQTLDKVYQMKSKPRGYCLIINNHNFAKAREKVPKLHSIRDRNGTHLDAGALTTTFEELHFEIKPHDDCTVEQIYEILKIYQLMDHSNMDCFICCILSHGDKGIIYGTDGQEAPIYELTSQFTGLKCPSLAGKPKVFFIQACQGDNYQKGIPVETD
MCH-5, sequence (Q14790 385-479 limits assumed, species assumed): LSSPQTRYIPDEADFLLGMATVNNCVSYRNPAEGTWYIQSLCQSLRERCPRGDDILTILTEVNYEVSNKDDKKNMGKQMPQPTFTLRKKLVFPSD

| SMILES | Ki (mICE) [nM] | mICE k3/Ki (mICE) | CPP32 k3/Ki (CPP32) | Ki (CPP32) [nM] | Ki (MCH-2) [nM] | MCH-2 k3/Ki (MCH-2) | Ki (MCH-5) [nM] | MCH-5 k3/Ki (MCH-5) |
| --- | --- | --- | --- | --- | --- | --- | --- | --- |
| C[C@H](NC(=O)C(=O)Nc1ccccc1F)C(=O)N[C@@H](CC(=O)O)C(=O)COc1c(F)c(F)cc(F)c1F [Example 66] | 25 | 339,000 moles^−1 seconds^−1 | 478,000 moles^−1 seconds^−1 | 28 | 19 | 212,000 moles^−1 seconds^−1 | 13 | 170,000 moles^−1 seconds^−1 |
| C[C@H](NC(=O)C(=O)Nc1ccccc1C(C)(C)C)C(=O)N[C@@H](CC(=O)O)C(=O)COc1ccccc1F [Example 31] | 31 | 442,000 moles^−1 seconds^−1 | 67,700 moles^−1 seconds^−1 | 60 | 71 | 54,900 moles^−1 seconds^−1 | 45 | 119,000 moles^−1 seconds^−1 |
| C[C@H](NC(=O)C(=O)Nc1ccccc1I)C(=O)N[C@@H](CC(=O)O)C(=O)COP(=O)(c1ccccc1)c1ccccc1 [Example 74] | 303 | 36,300 moles^−1 seconds^−1 | 78,300 moles^−1 seconds^−1 | 161 | 78 | 66,200 moles^−1 seconds^−1 | 70 | 46,300 moles^−1 seconds^−1 |
| C[C@H](NC(=O)C(=O)Nc1ccccc1C(C)(C)C)C(=O)N[C@@H](CC(=O)O)C(=O)COP(=O)(c1ccccc1)c1ccccc1 [Example 47] | 14 | 625,000 moles^−1 seconds^−1 | 395,000 moles^−1 seconds^−1 | 24 | 11 | 484,000 moles^−1 seconds^−1 | 8.7 | 589,000 moles^−1 seconds^−1 |
| CC(C)[C@H](NC(=O)C(=O)NCCc1ccccc1)C(=O)N[C@@H](CC(=O)O)C(=O)COc1c(F)c(F)cc(F)c1F [Example 80] | 182 | 77,100 moles^−1 seconds^−1 | 13,400 moles^−1 seconds^−1 | 515 | 175 | 12,600 moles^−1 seconds^−1 | 162 | 16,600 moles^−1 seconds^−1 |
| CC(C)[C@H](NC(=O)C(=O)Nc1cccc2ccccc12)C(=O)N[C@@H](CC(=O)O)C(=O)COc1c(F)c(F)cc(F)c1F [Example 7] | 5.7 |  |  | 46 | 16 |  | 3.7 |  |
| C[C@H](NC(=O)C(=O)NC1CCCCC1)C(=O)N[C@@H](CC(=O)O)C(=O)COP(=O)(c1ccccc1)c1ccccc1 [Example 56] | 5.3 | 2,032,000 moles^−1 seconds^−1 | 137,000 moles^−1 seconds^−1 | 96 | 25 | 97,500 moles^−1 seconds^−1 | 2.5 | 1,790,000 moles^−1 seconds^−1 |
| CC(C)[C@H](NC(=O)C(=O)Nc1ccccn1)C(=O)N[C@@H](CC(=O)O)C(=O)COc1c(F)c(F)cc(F)c1F [Example 100] | 206 | 36,000 moles^−1 seconds^−1 | 9,850 moles^−1 seconds^−1 | 2250 | 188 | 11,600 moles^−1 seconds^−1 | 157 | 19,500 moles^−1 seconds^−1 |
| C[C@H](NC(=O)C(=O)Nc1ccccc1Cl)C(=O)N[C@@H](CC(=O)O)C(=O)COC(=O)c1c(Cl)cccc1Cl [Example 42] | 7 | 1,940,000 moles^−1 seconds^−1 | 842,000 moles^−1 seconds^−1 | 21 | 7 | 745,000 moles^−1 seconds^−1 | 4.6 | 1,630,000 moles^−1 seconds^−1 |
| COC(=O)c1cc(OCC(=O)[C@H](CC(=O)O)NC(=O)[C@@H](NC(=O)C(=O)Nc2cccc3ccccc23)C(C)C)no1 [Example 13] | 24 |  |  | 67 | 96 |  | 23 |  |
| C[C@H](NC(=O)C(=O)NCc1cccc2ccccc12)C(=O)N[C@@H](CC(=O)O)C(=O)COc1c(F)c(F)cc(F)c1F [Example 33] | 5.6 | 2,590,000 moles^−1 seconds^−1 | 158,000 moles^−1 seconds^−1 | 61 | 16 | 335,000 moles^−1 seconds^−1 | 9.7 | 1,260,000 moles^−1 seconds^−1 |
| C[C@H](NC(=O)C(=O)NC1CCCCC1)C(=O)N[C@@H](CC(=O)O)C(=O)COC(=O)c1c(Cl)cccc1Cl [Example 55] | 6.1 | 2,020,000 moles^−1 seconds^−1 | 1,174,000 moles^−1 seconds^−1 | 13 | 6.3 | 655,000 moles^−1 seconds^−1 | 2.6 | 2,140,000 moles^−1 seconds^−1 |
| C[C@H](NC(=O)C(=O)NCc1cccc2ccccc12)C(=O)N[C@@H](CC(=O)O)C(=O)COC(=O)c1c(Cl)cccc1Cl [Example 34] | 9.9 | 1,160,000 moles^−1 seconds^−1 | 187,000 moles^−1 seconds^−1 | 43 | 11 | 214,000 moles^−1 seconds^−1 | 4.2 | 936,000 moles^−1 seconds^−1 |
| C[C@H](NC(=O)C(=O)Nc1cccc2c1CCCC2)C(=O)N[C@@H](CC(=O)O)C(=O)COc1c(F)c(F)cc(F)c1F [Example 50] | 640 | 22,000 moles^−1 seconds^−1 | 118,000 moles^−1 seconds^−1 | 129 | 72 | 64,100 moles^−1 seconds^−1 | 74 | 46,200 moles^−1 seconds^−1 |
| CC(C)[C@H](NC(=O)C(=O)Nc1cccc2ccccc12)C(=O)N[C@@H](CC(=O)O)C(=O)COc1ccnc(C(F)(F)F)n1 [Example 12] | 7.2 |  |  | 64 | 95 |  | 12 |  |
| C[C@H](NC(=O)C(=O)Nc1cc(C(F)(F)F)ccc1N1CCCC1)C(=O)N[C@@H](CC(=O)O)C(=O)COP(=O)(c1ccccc1)c1ccccc1 [Example 46] | 5.3 | 1,503,000 moles^−1 seconds^−1 | 78,600 moles^−1 seconds^−1 | 52 | 7.3 | 202,000 moles^−1 seconds^−1 | 4.4 | 933,000 moles^−1 seconds^−1 |
| CC(C)[C@H](NC(=O)C(=O)Nc1ccccc1F)C(=O)N[C@@H](CC(=O)O)C(=O)COc1c(F)c(F)cc(F)c1F [Example 90] | 147 | 58,500 moles^−1 seconds^−1 | 5,560 moles^−1 seconds^−1 | 2270 | 221 | 11,200 moles^−1 seconds^−1 | 40 | 49,600 moles^−1 seconds^−1 |
| C[C@H](NC(=O)C(=O)Nc1ccccc1I)C(=O)N[C@@H](CC(=O)O)C(=O)COC(=O)c1c(Cl)cccc1Cl [Example 75] | 13 | 1,270,000 moles^−1 seconds^−1 | 67,600 moles^−1 seconds^−1 | 105 | 34 | 28,200 moles^−1 seconds^−1 | 4 | 551,000 moles^−1 seconds^−1 |
| CC(C)[C@H](NC(=O)C(=O)Nc1ccccc1C(F)(F)F)C(=O)N[C@@H](CC(=O)O)C(=O)COc1c(F)c(F)cc(F)c1F [Example 92] | 11 | 1,044,000 moles^−1 seconds^−1 | 57,400 moles^−1 seconds^−1 | 175 | 12 | 261,000 moles^−1 seconds^−1 | 6 | 41,000 moles^−1 seconds^−1 |
| C[C@H](NC(=O)C(=O)Nc1ccccc1C(C)(C)C)C(=O)N[C@@H](CC(=O)O)C(=O)COC(=O)c1c(Cl)cccc1Cl [Example 76] | 19 | 537,000 moles^−1 seconds^−1 | 62,900 moles^−1 seconds^−1 | 85 | 235 | 6,960 moles^−1 seconds^−1 | 22 | 30,200 moles^−1 seconds^−1 |
| CC(C)[C@H](NC(=O)C(=O)NC(c1ccccc1)c1ccccc1)C(=O)N[C@@H](CC(=O)O)C(=O)COc1c(F)c(F)cc(F)c1F [Example 81] | 54 | 201,000 moles^−1 seconds^−1 | 5,380 moles^−1 seconds^−1 | 882 | 1150 | 1,430 moles^−1 seconds^−1 | 36 | 48,600 moles^−1 seconds^−1 |
